From ChEMBL document CHEMBL1157489, “Identification of novel non-peptide CXCR4 antagonists by ligand-based design approach” (Bioorg Med Chem Lett, 2008)

The compounds below were run on Human immunodeficiency virus 1 (assay: Antiviral activity against HIV1 3B assessed as inhibition of virus-induced cytopathogenicity). Details: Human immunodeficiency virus 1, 3B.
Assay type: functional, organism-based

| EC50 | Structure (SMILES) |
| --- | --- |
| 5.4 µM | CC(C)C[C@H](NC(=N)N)C(=O)Nc1ccc2c(c1)cc(C(=O)NCCc1c[nH]c3ccccc13)n2CCCNC(=N)N |

These compounds were tested against T1, C-X-C chemokine receptor type 4 (Homo sapiens, UniProt P61073) (assay: Displacement of [125I]SDF1 from human CXCR4 expressed in CHO cells at 10 uM). Details: not given.
Assay type: cell-based

T1 sequence (P61073 whole entry): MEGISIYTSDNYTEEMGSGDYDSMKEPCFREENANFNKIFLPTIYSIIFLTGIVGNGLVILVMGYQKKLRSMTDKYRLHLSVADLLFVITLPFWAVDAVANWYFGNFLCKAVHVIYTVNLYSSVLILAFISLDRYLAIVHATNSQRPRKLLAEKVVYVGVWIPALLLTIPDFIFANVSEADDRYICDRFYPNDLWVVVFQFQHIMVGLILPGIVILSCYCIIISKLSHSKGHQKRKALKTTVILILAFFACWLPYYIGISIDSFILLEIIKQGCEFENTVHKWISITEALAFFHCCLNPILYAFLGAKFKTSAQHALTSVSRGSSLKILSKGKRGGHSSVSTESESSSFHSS

| Structure (SMILES) | Activity |
| --- | --- |
| N=C(N)NCCCn1c(C(=O)Nc2cccc3ccccc23)cc2cc(NC(=O)CCc3ccc(O)cc3)ccc21 | 55% |
| N=C(N)NCCc1cc2cc(NC(=O)CCc3ccc(O)cc3)ccc2n1CCc1ccc2ccccc2c1 | 53% |
| N=C(N)NCCCn1c(C(=O)NCCc2c[nH]c3ccccc23)cc2cc(NC(=O)C3CCN(C(=N)N)CC3)ccc21 | 86% |
| N=C(N)NCCCn1c(C(=O)Nc2cccc3ccccc23)cc2cc(NC(=O)Cc3ccc(O)cc3)ccc21 | 62% |
| N=C(N)NCCCn1c(C(=O)NCCc2c[nH]c3ccccc23)cc2cc(NC(=O)C(Cc3ccccc3)NC(=N)N)ccc21 (racemic) | 72% |

The next lines start with the values.

| Activity | Structure (SMILES) |
| --- | --- |
| 23% | N=C(N)NCCCn1c(C(=O)NCCc2ccc(O)cc2)cc2cc(NC(=O)CNC(=N)N)ccc21 |
| 61% | N=C(N)NCCCn1c(C(=O)NCCc2cccc3ccccc23)cc2cc(NC(=O)CNC(=N)N)ccc21 |
| 77% | CC(C)CC(NC(=N)N)C(=O)Nc1ccc2c(c1)cc(C(=O)NCCc1c[nH]c3ccccc13)n2CCCNC(=N)N (racemic) |
| 63% | N=C(N)NCCCn1c(C(=O)NCCc2ccc3ccccc3c2)cc2cc(NC(=O)CNC(=N)N)ccc21 |
| 70% | N=C(N)NCCCn1c(C(=O)NCCc2c[nH]c3ccccc23)cc2cc(NC(=O)CCNC(=N)N)ccc21 |
| 88% | N=C(N)NCCCn1c(C(=O)NCCc2c[nH]c3ccccc23)cc2cc(NC(=O)CNC(=N)N)ccc21 |

What follows are compounds tested against T1, C-X-C chemokine receptor type 4 (assay: Displacement of [125I]SDF1 from human CXCR4 expressed in CHO cells). Details: not given.
Assay type: cell-based

| IC50 | Structure (SMILES) |
| --- | --- |
| 2.2 µM | CC(C)C[C@@H](NC(=N)N)C(=O)Nc1ccc2c(c1)cc(C(=O)NCCc1c[nH]c3ccccc13)n2CCCNC(=N)N |
| 3 µM | N=C(N)NCCCn1c(C(=O)NCCc2c[nH]c3ccccc23)cc2cc(NC(=O)C3CCN(C(=N)N)CC3)ccc21 |
| 1.2 µM | CC(C)C[C@H](NC(=N)N)C(=O)Nc1ccc2c(c1)cc(C(=O)NCCc1c[nH]c3ccccc13)n2CCCNC(=N)N |
| 2.7 µM | NC(N)=NCCc1cc2cc(NC(=O)CCc3ccc(O)cc3)ccc2n1CCc1ccc2ccccc2c1 |
| 3 µM | NC(N)=NCCCn1c(C(=O)NCCc2c[nH]c3ccccc23)cc2cc(NC(=O)CN=C(N)N)ccc21 |
| 4.8 µM | NC(N)=NCCCn1c(C(=O)Nc2cccc3ccccc23)cc2cc(NC(=O)Cc3ccc(O)cc3)ccc21 |
| 3.7 µM | N=C(N)NCCCn1c(C(=O)NCCc2c[nH]c3ccccc23)cc2cc(NC(=O)[C@@H](Cc3ccccc3)NC(=N)N)ccc21 |
| 1.7 µM | N=C(N)NCCCn1c(C(=O)NCCc2c[nH]c3ccccc23)cc2cc(NC(=O)[C@H](Cc3ccccc3)NC(=N)N)ccc21 |
